For experiment [1], the target named is T1, BMPR-2 receptor extra cellular domain (Homo sapiens, UniProt Q13873).
T1 construct: immobilized BMPR-2 receptor extra cellular domain (ECD)
T1 sequence (Q13873 27-150 limits assumed): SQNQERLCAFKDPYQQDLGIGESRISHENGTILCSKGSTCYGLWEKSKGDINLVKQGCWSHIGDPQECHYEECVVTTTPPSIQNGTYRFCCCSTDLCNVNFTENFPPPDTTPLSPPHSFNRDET
The experiment can be described thus: Radio-ligand receptor binding assay, competition with 125I-labeled TDF-1 for BMPR-2. To be noted: competitive binding, FIG. 4. The source says: (§1) General protocol: These assays are based on competition between ^125I-labeled TDF-1 (BMP-7 or OP-1) and candidate TDFRP compounds or unlabeled TDF-1 for binding to respective receptors (ALK-3, ALK-6 or BMPR-2). In brief, the procedure involves immobilization of receptor on 96 well Removawell plates, blocking the wells with 3% BSA in PBS and subsequently washing the wells. Increasing concentrations of unlabeled TDF-1 or TDFRP compounds or control (unlabeled TDF-1) prepared in binding buffer are then added. Incubate plate for 1 hour at room temperature, and then add a fixed amount of ^125I-labeled TDF-1 (250,000 to 350,000 cpm) to the wells and further incubate in cold (4° C.) for 20 hours. Aspirate the contents of the wells and wash the wells four times with a wash buffer, and count the receptor bound ^125I-labeled TDF-1 in an auto gamma counter. B. HK-2 Cell Culture and Determination of Cytokine Production

Experiment [2] has as its target T2, BMPR-1A (ALK3) receptor extra cellular domain (Homo sapiens, UniProt P36894).
T2 construct: immobilized BMPR-1A receptor extra cellular domain (ECD)
Nature of the experiment: Radio-ligand receptor binding assay, competition with 125I-labeled TDF-1 for ALK-3. To be noted: competitive binding assay, FIG. 2.
Text: as §1

In experiment [3] the test system is IL-6 in HK2 human transformed kidney proximal tubule cells. Nature of the experiment: IL-6 level in HK-2 cell medium after TNF-alpha stimulation (ELISA). It counts as cell-based. Conditions: after TNF-alpha inflammatory stimulation, FIG. 6, FIG. 10. How it is done: (§2) The immortalized PTEC-derived HK-2 (Human Kidney-2) cells (ATCC number CRL-2190) were grown in serum-free keratinocyte medium (GIBCO number 17005-042) supplemented with epidermal growth factor (EGF: 5 ng/mL) and bovine pituitary extract (40 ug/mL) for 48 hours as described previously (Ryan et al (1994) Kidney International 45:48-57). Cells were transferred to 24-well plates at a density of 3×10^5 cells per well. After 24 hours, cells were incubated with fresh medium containing TNF-alpha (5 ng/mL) for 20 hours. Controls received medium alone. Then cells were washed twice with fresh culture medium and further incubated with culture medium alone (medium control, and TNF control wells) or TDF-1 at three different concentrations (40, 200 or 1000 ng/mL) or TDFRP compounds at three different concentrations (4, 20 or 100 uM) for sixty hours. During incubation, cells were kept in a 5% CO2 humid atmosphere at 37° C. At the end of the incubation, the media were removed and stored frozen until assayed. The concentrations of IL-6 and sICAM-in culture supernatants were measured by specific ELISA.
Dilute the capture antibody to the working concentration in PBS, pH 7.4 without carrier protein. Add 61 uL of stock antibody (360 ug/mL) to 10.939 mL of PBS, gently vertex. Immediately coat a 96 well microplate (Immulon 4 HBX) with 100 uL per well of the diluted capture antibody. Seal the plate and incubate it overnight in cold (4° C.). (PBS: 8.1 mM Na2HPO4, 1.5 mM KH2PO4, 137 mM NaCl, 2.7 mM KCl, pH 7.4, 0.2 um filtered). Next day empty the wells and wash the wells three times, each time using 340 uL of wash buffer per well. (wash buffer: PBS, pH 7.4 containing 0.05% Tween-20).
Prepare blocking buffer, 35 mL per plate. To prepare blocking buffer, add 0.35 grams of BSA and 1.75 grams of sucrose to 35 mL of PBS, pH 7.4, and mix the contents gently. Add 300 uL of blocking buffer to each well and incubate the plate for a minimum of 1 hour at room temperature. Empty the wells and wash wells three times, each time using 340 uL of wash buffer per well.
Prepare a 8 point standard curve using 2-fold serial dilutions in reagent diluent. Dilute stock standard, recombinant IL-6, 70 ng/mL to an initial concentration of 2400 ng/mL in reagent diluent. Then further dilute the standard to a working range, 1200, 600, 300, 150, 75, 37.5, 18.75 and 9.375 ng/mL using reagent diluent. (to prepare reagent diluent, add 0.4 grams of BSA to 40 mL of PBS, pH 7.4 and gently vertex). Also dilute 24 uL of each sample medium (from HK-2 cell cultures) with 376 uL of reagent diluent. Add 100 uL of standard or sample per well, seal the plate and incubate it overnight in cold (4° C.).
Next day, empty the wells and wash wells three times, each time using 340 uL of wash buffer per well. […]
Background: In an ELISA, binding on a coated surface is turned into a signal by an enzyme label.

The subject of the next experiment is HK-2 cells. The experiment can be described thus: Anti-inflammatory activity in HK-2 cell culture (FIG. 11-13). It is filed as cell-based, human. To be noted: marker not stated. How it is done: as §2

T2 sequence (P36894 24-152 limits assumed, species assumed): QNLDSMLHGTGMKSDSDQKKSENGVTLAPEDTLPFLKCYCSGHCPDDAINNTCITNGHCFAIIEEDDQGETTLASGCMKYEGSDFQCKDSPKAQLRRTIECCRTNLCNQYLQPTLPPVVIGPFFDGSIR

As for “CIVNSSDDFLCKKYRS [SEQ ID NO:16, negative control peptide]”, the “specific binding to BMPR-2 / inhibition of specific binding of labeled TDF-1 to BMPR-2 receptor” value in experiment [1] is listed as “does not inhibit”. For the same substance, the “specific binding to ALK3 / inhibition of specific binding of labeled TDF-1 to ALK3 receptor” value in experiment [2] is “does not inhibit”.

CYFDDSSQVICKKYRS [SEQ ID NO:43]: the “effect on level of IL-6 in HK2 cell medium” value in experiment [3] is “brings the IL-6 level down below the basal level”.

With “TP2.006: peptide printed as SEQ ID NO:45 in FIG. 12 legend; conflicts with TP2.003 = SEQ ID NO:45 in b271 (CYFDDSSNVLCKKYRS)”, in the experiment on HK-2 cells, the anti-inflammatory activity result is “no anti-inflammatory activity”.

As for CYFDDSSNVICK [SEQ ID NO:21], the anti-inflammatory activity entry in the experiment on HK-2 cells is “no anti-inflammatory activity”. For the same substance, the “specific binding to ALK3 / inhibition of specific binding of labeled TDF-1 to ALK3 receptor” value in experiment [2] was “specifically binds”.

In the case of CYFDDSSNVICKK [SEQ ID NO:20], the anti-inflammatory activity result in the experiment with HK-2 cells was “no anti-inflammatory activity”.

Regarding CYFDDNSNVICKKYRS [SEQ ID NO:42], in the experiment with HK-2 cells, the anti-inflammatory activity entry is given as “no anti-inflammatory activity”.

Consider CLFDDSSNVICKKYRS [SEQ ID NO:15], for which, in the experiment on HK-2 cells, the anti-inflammatory activity entry was “very weak anti-inflammatory activity”.

The record behind these values is US7482329B2, “Single domain TDF-related compounds and analogs thereof” (Thrasos Therapeutics, priority 2002, dated 2009).
